Laboratory results reported in publication PMC12193096 (International Journal of Molecular Sciences, 2025).

Assays:
LYN = biological target: T1, LYN (Homo sapiens, UniProt P07948); assay: live-cell confocal co-localization (HaloTag recruitment to endosome/F-actin) in HeLa cells; type: cell-based
T1 construct: EGFP-fusion of wild-type LYN

BTK = biological target: T2, BTK (Homo sapiens, UniProt Q06187); assay: as above; type: cell-based
T2 construct: EGFP-fusion of wild-type BTK

ABL1 = biological target: T3, ABL1 (Homo sapiens, UniProt P00519); assay: Kinase-Glo Plus luminescence kinase assay; also live-cell co-localization competed by excess dasatinib; type: biochemical
T3 construct: recombinant active kinase ABL1

FGR = biological target: T4, FGR (Homo sapiens, UniProt P09769); assay: live-cell confocal co-localization (HaloTag recruitment to endosome/F-actin) in HeLa cells; type: cell-based
T4 construct: EGFP-fusion of wild-type FGR

CSK = biological target: T5, CSK (Homo sapiens, UniProt P41240); assay: as above; type: cell-based
T5 construct: EGFP-fusion of wild-type CSK
Description: live-cell confocal co-localization (HaloTag recruitment to endosome/F-actin) in HeLa cells on CSK | […]

HCK = biological target: T6, HCK (Homo sapiens, UniProt P08631); assay: as above; type: cell-based
T6 construct: EGFP-fusion of wild-type HCK

YES1 = biological target: T7, YES1 (Homo sapiens, UniProt P07947); assay: as above; type: cell-based
T7 construct: EGFP-fusion of wild-type YES1

SRC = biological target: T8, SRC (Homo sapiens, UniProt P12931); assay: Western blot of pY416 autophosphorylation of EGFP-SRC in HeLa cells; live-cell co-localization imaging; type: cell-based
T8 construct: full-length SRC (EGFP-SRC)
T8 sequence (P12931 2-536): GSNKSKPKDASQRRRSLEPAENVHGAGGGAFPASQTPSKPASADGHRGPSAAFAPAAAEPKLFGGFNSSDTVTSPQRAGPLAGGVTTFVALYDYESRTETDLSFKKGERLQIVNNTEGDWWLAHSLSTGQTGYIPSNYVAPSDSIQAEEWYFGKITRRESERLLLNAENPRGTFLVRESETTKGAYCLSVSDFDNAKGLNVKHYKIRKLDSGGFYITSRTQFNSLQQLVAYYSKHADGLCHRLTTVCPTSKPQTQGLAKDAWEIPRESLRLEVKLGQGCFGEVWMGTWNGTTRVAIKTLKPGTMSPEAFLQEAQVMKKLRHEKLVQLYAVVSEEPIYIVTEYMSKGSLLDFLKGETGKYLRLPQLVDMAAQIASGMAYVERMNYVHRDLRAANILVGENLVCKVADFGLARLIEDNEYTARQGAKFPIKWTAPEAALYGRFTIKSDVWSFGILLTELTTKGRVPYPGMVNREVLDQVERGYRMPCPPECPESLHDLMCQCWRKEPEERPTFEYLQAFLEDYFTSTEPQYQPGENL

T5 sequence (P41240 whole entry, the tested form may be a part): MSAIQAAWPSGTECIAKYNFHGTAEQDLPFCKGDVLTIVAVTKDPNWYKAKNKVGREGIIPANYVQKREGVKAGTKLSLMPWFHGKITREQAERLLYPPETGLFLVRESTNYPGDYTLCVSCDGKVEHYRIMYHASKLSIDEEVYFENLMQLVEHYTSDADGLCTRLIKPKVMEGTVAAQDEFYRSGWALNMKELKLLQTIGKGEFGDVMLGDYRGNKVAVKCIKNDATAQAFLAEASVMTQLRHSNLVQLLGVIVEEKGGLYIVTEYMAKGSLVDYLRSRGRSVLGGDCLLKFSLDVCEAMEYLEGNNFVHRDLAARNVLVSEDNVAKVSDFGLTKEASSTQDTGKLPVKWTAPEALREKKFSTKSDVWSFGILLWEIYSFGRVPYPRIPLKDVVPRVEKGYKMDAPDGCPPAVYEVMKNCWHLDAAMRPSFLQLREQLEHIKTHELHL
T1 sequence (P07948 2-491 isoform P07948-2): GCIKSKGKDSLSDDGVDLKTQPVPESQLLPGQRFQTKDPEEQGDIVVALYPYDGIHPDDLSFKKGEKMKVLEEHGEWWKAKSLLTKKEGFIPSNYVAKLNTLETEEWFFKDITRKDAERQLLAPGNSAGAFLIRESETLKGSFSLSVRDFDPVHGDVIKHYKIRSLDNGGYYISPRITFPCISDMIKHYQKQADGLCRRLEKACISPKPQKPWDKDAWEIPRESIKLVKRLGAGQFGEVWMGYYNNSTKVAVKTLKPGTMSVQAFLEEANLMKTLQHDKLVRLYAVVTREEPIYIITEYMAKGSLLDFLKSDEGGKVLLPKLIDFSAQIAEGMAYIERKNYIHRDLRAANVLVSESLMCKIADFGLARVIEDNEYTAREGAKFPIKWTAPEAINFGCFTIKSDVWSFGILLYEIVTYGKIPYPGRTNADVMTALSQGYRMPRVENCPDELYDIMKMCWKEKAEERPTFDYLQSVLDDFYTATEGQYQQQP
T2 sequence (Q06187 whole entry, the tested form may be a part): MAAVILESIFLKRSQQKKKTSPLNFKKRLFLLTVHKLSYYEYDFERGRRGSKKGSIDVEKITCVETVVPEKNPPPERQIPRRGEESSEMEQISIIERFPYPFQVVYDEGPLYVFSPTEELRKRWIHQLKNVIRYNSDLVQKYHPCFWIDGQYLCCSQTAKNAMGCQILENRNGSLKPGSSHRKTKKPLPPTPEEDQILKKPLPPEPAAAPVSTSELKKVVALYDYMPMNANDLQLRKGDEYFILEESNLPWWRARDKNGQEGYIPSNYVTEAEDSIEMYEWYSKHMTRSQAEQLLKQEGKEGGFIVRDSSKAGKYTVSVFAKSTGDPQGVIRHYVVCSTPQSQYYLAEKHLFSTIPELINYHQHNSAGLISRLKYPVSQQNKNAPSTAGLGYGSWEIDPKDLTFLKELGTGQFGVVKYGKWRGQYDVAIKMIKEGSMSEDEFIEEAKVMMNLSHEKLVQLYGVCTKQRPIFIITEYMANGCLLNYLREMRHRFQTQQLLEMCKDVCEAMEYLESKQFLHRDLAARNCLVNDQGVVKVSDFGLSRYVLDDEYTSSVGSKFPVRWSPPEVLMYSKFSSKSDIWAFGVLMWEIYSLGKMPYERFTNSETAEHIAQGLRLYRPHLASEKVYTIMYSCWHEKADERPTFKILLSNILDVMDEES
T7 sequence (P07947 2-543): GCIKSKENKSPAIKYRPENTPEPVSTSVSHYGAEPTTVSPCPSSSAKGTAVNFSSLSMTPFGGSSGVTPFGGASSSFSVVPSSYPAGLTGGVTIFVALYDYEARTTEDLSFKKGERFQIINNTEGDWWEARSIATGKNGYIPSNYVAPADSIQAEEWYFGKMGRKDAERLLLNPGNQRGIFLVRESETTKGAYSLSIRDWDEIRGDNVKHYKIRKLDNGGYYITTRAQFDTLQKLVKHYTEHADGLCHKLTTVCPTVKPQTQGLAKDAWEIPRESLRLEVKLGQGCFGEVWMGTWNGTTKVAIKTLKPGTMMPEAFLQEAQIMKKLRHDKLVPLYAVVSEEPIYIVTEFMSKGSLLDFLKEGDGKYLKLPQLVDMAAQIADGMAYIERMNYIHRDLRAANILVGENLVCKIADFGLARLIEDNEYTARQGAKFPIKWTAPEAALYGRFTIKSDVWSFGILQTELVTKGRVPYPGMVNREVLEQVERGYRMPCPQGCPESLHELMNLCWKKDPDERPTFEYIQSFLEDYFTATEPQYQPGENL
T4 sequence (P09769 2-529): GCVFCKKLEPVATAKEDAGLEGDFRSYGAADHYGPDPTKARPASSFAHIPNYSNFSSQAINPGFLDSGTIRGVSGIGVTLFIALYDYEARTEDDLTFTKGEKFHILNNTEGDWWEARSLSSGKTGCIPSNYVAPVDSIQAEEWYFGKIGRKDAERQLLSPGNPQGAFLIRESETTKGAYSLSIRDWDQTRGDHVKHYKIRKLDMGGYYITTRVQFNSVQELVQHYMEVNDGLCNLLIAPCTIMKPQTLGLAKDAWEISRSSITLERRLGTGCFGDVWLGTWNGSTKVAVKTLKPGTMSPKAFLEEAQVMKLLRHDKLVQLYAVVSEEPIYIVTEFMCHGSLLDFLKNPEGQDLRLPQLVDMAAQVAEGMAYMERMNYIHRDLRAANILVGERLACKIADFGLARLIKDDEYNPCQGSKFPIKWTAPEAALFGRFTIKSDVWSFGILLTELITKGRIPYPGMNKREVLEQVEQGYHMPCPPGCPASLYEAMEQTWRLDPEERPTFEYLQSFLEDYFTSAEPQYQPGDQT
T3 sequence (P00519 whole entry): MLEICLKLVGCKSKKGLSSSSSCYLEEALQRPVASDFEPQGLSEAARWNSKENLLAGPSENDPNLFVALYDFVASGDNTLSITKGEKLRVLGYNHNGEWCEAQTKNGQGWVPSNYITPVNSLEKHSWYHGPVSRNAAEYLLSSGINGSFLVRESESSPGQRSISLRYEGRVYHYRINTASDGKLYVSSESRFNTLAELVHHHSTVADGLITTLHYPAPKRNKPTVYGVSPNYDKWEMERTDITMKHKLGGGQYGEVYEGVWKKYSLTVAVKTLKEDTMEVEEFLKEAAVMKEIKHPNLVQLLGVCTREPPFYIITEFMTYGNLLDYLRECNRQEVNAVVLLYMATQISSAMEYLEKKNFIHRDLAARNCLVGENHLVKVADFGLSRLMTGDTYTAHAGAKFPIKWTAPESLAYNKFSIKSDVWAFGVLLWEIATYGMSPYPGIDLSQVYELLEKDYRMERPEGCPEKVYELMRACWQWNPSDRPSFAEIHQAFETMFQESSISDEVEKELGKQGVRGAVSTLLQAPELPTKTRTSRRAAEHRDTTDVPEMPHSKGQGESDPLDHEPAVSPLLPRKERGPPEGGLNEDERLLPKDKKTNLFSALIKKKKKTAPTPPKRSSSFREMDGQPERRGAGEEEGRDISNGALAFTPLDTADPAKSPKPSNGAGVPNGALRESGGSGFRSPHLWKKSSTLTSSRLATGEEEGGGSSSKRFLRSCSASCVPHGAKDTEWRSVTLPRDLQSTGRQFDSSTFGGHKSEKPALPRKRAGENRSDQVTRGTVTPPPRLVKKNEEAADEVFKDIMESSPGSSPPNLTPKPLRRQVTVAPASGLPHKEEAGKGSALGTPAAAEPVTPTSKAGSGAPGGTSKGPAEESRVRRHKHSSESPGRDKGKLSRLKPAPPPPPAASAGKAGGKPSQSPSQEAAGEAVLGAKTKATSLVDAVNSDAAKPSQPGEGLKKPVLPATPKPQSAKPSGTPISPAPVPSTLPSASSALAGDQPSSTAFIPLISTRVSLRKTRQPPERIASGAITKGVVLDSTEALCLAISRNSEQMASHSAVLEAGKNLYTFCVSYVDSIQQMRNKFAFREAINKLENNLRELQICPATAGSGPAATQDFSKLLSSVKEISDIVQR
T6 sequence (P08631 2-526): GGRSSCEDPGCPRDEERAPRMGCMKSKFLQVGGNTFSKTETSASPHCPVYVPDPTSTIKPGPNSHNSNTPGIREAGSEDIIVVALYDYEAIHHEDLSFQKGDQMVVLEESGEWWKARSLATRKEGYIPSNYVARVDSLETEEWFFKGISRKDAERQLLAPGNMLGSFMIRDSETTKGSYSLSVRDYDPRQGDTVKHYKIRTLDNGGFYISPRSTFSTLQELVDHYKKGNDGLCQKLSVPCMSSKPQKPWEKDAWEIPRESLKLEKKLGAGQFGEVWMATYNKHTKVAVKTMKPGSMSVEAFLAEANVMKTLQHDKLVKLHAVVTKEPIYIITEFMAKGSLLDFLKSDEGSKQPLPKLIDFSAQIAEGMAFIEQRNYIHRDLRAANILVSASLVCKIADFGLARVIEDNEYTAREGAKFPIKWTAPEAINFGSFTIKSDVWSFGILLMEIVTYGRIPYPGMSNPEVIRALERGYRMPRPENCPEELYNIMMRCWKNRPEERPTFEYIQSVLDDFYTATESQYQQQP

Structure (SMILES): Cc1nc(Nc2ncc(C(=O)Nc3c(C)cccc3Cl)s2)cc(N2CCN(CCNC(=O)CCC(=O)NCCOCCOCCCCCCCl)CC2)n1 [dasatinib−HT ligand]
- live-cell confocal co-localization (HaloTag recruitment to endosome/F-actin) in (LYN): the GFP-fusion kinase co-localized with the intracellular compartments
- live-cell confocal co-localization (HaloTag recruitment to endosome/F-actin) in (BTK): the GFP-fusion kinase co-localized with the intracellular compartments
- IC50 (ABL1): 153 nM
- live-cell confocal co-localization (HaloTag recruitment to endosome/F-actin) in (FGR): the GFP-fusion kinase co-localized with the intracellular compartments
- live-cell confocal co-localization (HaloTag recruitment to endosome/F-actin) in (CSK): clearly showed binding events between dasatinib and its target kinases (ABL1, SRC, CSK, etc.) at specific subcellular structures
- live-cell confocal co-localization (HaloTag recruitment to endosome/F-actin) in (HCK): the GFP-fusion kinase co-localized with the intracellular compartments
- live-cell confocal co-localization (HaloTag recruitment to endosome/F-actin) in (YES1): the GFP-fusion kinase co-localized with the intracellular compartments
- Western blot of pY416 autophosphorylation of EGFP-SRC in HeLa cells; live-cell c (SRC): the levels of active, phosphorylated SRC significantly decreased compared with those in vehicle-treated HeLa cells
